# From patent US20100210558A1, “MINIGASTRIN AS A THERAPEUTIC AGENT” (priority 2007, published 2010)
# Where no end group is shown, it is not given here.
# Test system: drug-resistant Mycobacterium tuberculosis
# Settings: 5 micrograms per ml
substance,measurement,value
LEEEEEAYGWMDF-NH2 [Minigastrin I],% inhibition,0.0%
